{"source": "paper PMC5974403", "about": "“The novel histone de acetylase 6 inhibitor, MPT0G211, ameliorates tau phosphorylation and cognitive deficits in an Alzheimer’s disease model” (Cell Death & Disease, 2018)", "key": {"SH-SY5Y cells": {"test_system": "SH-SY5Y cells", "experiment": "Flow cytometry of sub-G1 (PI) and annexin V/PI in transfected SH-SY5Y cells", "type": "cell-based, human", "conditions": "0.1 μM, 24 h", "description": "The fractionation scheme used to separate different cellular pools of tau, and the western blot analysis of the effects of the compounds on tau pools generated using the fractionation scheme are presented. b, d SH-SY5Y cells were transfected for 24 h with pCAX APP 695 and pRK5-EGFP-Tau P301L, incubated with or without MPT0G211 or ACY-1215 (0.1 μM) for another 24 h, and then the cells were fixed and stained by propidium iodide (b) or annexin V/PI double staining (d) and analyzed by flow cytometry. c, e Percentages of the subG1 phase (c) or annexin V-positive cells (e) in response to drug treatment as explained in (b). Results are presented as the mean ± SEM. *p < 0.05 and **p < 0.01 compared with the control group; ^#p < 0.05 and ^##p < 0.01 compared with the indicated groups TEXT PRINTED IN THE PICTURE: (B) MPT0G211: hAPP + hTauP301L: SubG1 10.91% | (B) ACY-1215: hAPP + hTauP301L: SubG1 15.40% | (D) MPT0G211: hAPP + hTauP301L: 9.56%; hAPP + hTauP301L: 11.26% | (D) ACY-1215: hAPP + hTauP301L: 9.28%; hAPP + hTauP301L: 11.25%\nAfter drug treatment, the cells were collected, washed with cold phosphate-buffered saline (PBS), and fixed with 75% alcohol overnight at −20 °C. After centrifugation, the fixed cells were washed with cold PBS and resuspended in DNA extraction buffer (0.2 M Na2HPO4, 0.1 M citric acid, pH 7.8) for 30 min. The cells were centrifuged and incubated with propidium iodide (PI) (0.1% Triton X-100, 100 μg/mL RNase A, and 80 μg/mL PI in PBS) for 30 min. The cell cycle was analyzed using a FACScan Flow cytometer and Cell Quest software (Becton Dickinson, Mountain View, CA, USA)."}, "[1]": {"experiment": "BBB crossing assay: brain and plasma concentrations by LC-MS/MS after oral administration", "type": "in vivo, rat", "conditions": "rats", "description": "Successful crossing of the BBB by therapeutic drugs is essential in the treatment of CNS disorders. To explore whether MPT0G211 can penetrate into the brain, single oral administration of MPT0G211 was performed, and plasma and brain samples were collected and analyzed by liquid chromatography tandem mass spectrometry (LC-MS/MS) to obtain brain/plasma ratios.\nThis assay was performed by Eurofins Scientific. Briefly, SD rats weighing 200–300 g were provided by BioLasco Taiwan (under the license of Charles River Laboratories). Rats were sedated under general inhalant anesthesia (3% isoflurane) for blood collection using cardiac puncture 60 and 180 min after oral administration of the test compound. Aliquots of blood were gently mixed with lithium heparin, kept on ice, and centrifuged at 2500 × g for 15 min at 4 °C. The plasma was then harvested and stored at −70 °C. After blood sampling, rats were decapitated, and the entire brain was quickly removed and rinsed with cold saline (0.9% NaCl, w/v). The surface vasculature was ruptured, blotted with dry gauze, weighed, and stored on ice within 1 h of collection. Each brain was homogenized in 3 mL cold PBS, pH 7.4, for 10 s on ice, and centrifuged at 5400 × g for 15 min at 4 °C. Supernatants were precipitated using acetonitrile precipitation and subjected to high-performance LC-MS/MS."}, "HDAC6": {"test_system": "HDAC6", "set-up": "method as in PMID 29304284", "conditions": "cited from earlier work"}, "Neuro-2a cells": {"test_system": "Neuro-2a cells", "experiment": "Western blot of acetyl-α-tubulin and acetyl-histone, Neuro-2a cells", "type": "cell-based, mouse", "conditions": "0.1 to 1 μM, 24 h", "description": "Cell viabilities were determined by MTT assay. The results represent the mean ± SEM of three independent experiments; *p < 0.05, **p < 0.01 and ***p < 0.001 compared with controls TEXT PRINTED IN THE PICTURE: (A) no label printed: M.W. 293.32\nCells (1 × 10^6) were incubated for 10 min at 4 °C in lysis buffer (20 mM HEPES, pH 7.4, 2 mM EGTA, 50 mM β-glycerophosphate, 0.1% Triton X-100, 10% glycerol, 1 mM dithiothreitol, 1 μg/mL leupeptin, 5 μg/mL aprotinin, 1 mM phenylmethylsulfonyl fluoride, and 1 mM sodium orthovanadate), scraped from the plate, incubated on ice for 10 min, and centrifuged at 17,000 × g for 30 min at 4 °C. Protein samples (30 μg) were electrophoresed through sodium dodecyl sulfate-polyacrylamide gels (SDS-PAGE) and transferred onto a nitrocellulose membrane, which was then blocked by incubation for 30 min at room temperature with 5% fat-free milk in PBS. Immunoblotting was performed by overnight incubation at 4 °C with primary antibodies in PBS, followed by incubation for 1 h at room temperature with HRP-conjugated secondary antibodies. Bound antibodies were measured using ECL reagent (T-Pro Biotechnology, New Taipei City, Taiwan), and the membrane was placed on a photographic film. Cell lysates (30 μg) were incubated with antibodies (1 μg each) and protein A/G agarose beads overnight at 4 °C. The precipitated beads were washed three times with 1 mL of ice-cold cell lysis buffer, and bound immune complexes were separated using 8% SDS-PAGE, followed by immunoblotting using the indicated primary antibody."}, "3×Tg-AD mice": {"test_system": "3×Tg-AD mice", "experiment": "Immunohistochemistry and western blot of brain (hippocampal CA1) of 3×Tg-AD mice", "type": "in vivo, mouse", "conditions": "3×Tg-AD mice, 50, 100 mg/kg oral, 3 months", "source_text": "Red arrowheads indicate phosphorylated-tau proteins. Scale bar = 25 μm. Data represent the mean ± SEM. *p < 0.05, **p < 0.01, and ***p < 0.001 compared with the basal or control group; ^#p < 0.05, ^##p < 0.01, and ^###p < 0.001 compared with the vehicle-treated group"}, "[2]": {"conditions": "hAPP + hTauP301L transfected SH-SY5Y, Fig. 3d picture, quadrant not identified"}}, "note": "Read-outs that look alike come from different tables or passages of the source.", "data": [{"compound": "O=C(NO)c1ccc(CNc2cccc3cccnc23)cc1", "note": "[MPT0G211, N-hydroxy-4-((quinolin-8-ylamino)methyl)benzamide]", "values": [{"measurement": "SubG1 population", "setting": "SH-SY5Y cells; hAPP + hTauP301L transfected SH-SY5Y, PI staining, Fig. 3b picture", "value": 10.91, "unit": "%"}, {"measurement": "annexin V/PI double staining, quadrant percentage", "setting": "SH-SY5Y cells; [2]", "value": 11.26, "unit": "%"}, {"measurement": "annexin V/PI double staining, quadrant percentage (first value)", "setting": "SH-SY5Y cells; [2]", "value": 9.56, "unit": "%"}, {"measurement": "plasmid transfection-induced sub-G1 population and annexin V-positive apoptotic cells increase", "setting": "SH-SY5Y cells; transfected neuronal cells", "value": "significantly inhibited"}, {"measurement": "Kp at 3 h", "setting": "[1]; SD, rat, brain/plasma, PO 50 mg/kg, 3 h, read-out: Brain/plasma ratio", "value": 0.9}, {"measurement": "concentration at 1 h", "setting": "[1]; SD, rat, brain, PO 50 mg/kg, 1 h, read-out: Brain concentration", "value": "56.9 ± 3.4", "unit": "ng/g"}, {"measurement": "concentration at 3 h", "setting": "[1]; SD, rat, brain, PO 50 mg/kg, 3 h, read-out: Brain concentration", "value": "11 ± 0.1", "unit": "ng/g"}, {"measurement": "Kp at 1 h", "setting": "[1]; SD, rat, in vivo, PO 50 mg/kg, 1 h, read-out: Brain/plasma ratio", "value": 1.01}, {"measurement": "concentration at 1 h", "setting": "[1]; SD, rat, plasma, PO 50 mg/kg, 1 h, read-out: Plasma concentration", "value": "56.4 ± 4", "unit": "ng/g"}, {"measurement": "concentration at 3 h", "setting": "[1]; SD, rat, plasma, PO 50 mg/kg, 3 h, read-out: Plasma concentration", "value": "12.2 ± 1.4", "unit": "ng/g"}, {"measurement": "BBB penetration", "setting": "[1]; single oral administration", "value": "can penetrate the BBB"}, {"measurement": "time for which concentrations were detected in the brain", "setting": "[1]; single oral administration", "value": "at least 3 h"}, {"measurement": "selectivity for HDAC6 compared with the other HDAC isoforms", "setting": "HDAC6", "value": 1000, "unit": "fold"}, {"measurement": "IC50", "setting": "HDAC6; read-out: HDAC6 inhibition IC50", "value": 0.291, "unit": "nM"}, {"measurement": "acetylation of histones", "setting": "Neuro-2a cells", "value": "without affecting the acetylation of histones"}, {"measurement": "acetylation of α-tubulin", "setting": "Neuro-2a cells", "value": "concentration-dependently increased"}, {"measurement": "acetyl-α-tubulin accumulation in brain", "setting": "3×Tg-AD mice", "value": "increased"}, {"measurement": "p-Tau (S396) expression in brain", "setting": "3×Tg-AD mice; hippocampal CA1", "value": "significantly downregulated"}, {"measurement": "p-Tau (S404) expression in brain", "setting": "3×Tg-AD mice; hippocampal CA1", "value": "significantly downregulated"}]}]}
